Test results taken from patent US4359458A, “O-β. -D (and O-α.. -D) Multigalactopyranosyl, xylopyranosyl and glucopyranosyl sulfate salts” (American Cyanamid Company, priority 1981, dated 1982).
Where a name gives a salt, the structure may show the parent alone.

Legend:
activated human C1 = activated human C1 (Homo sapiens, UniProt P09871); assay: Test Code 026 (C1 inhibitor); type: biochemical; settings: serial dilution assay, twofold dilutions; higher well number indicates higher activity
From the text: (§1) An active inhibitor protects C2 from C1 and C4; (ii) Test Code 035 (C3-C9 inhibitor)--This test determines the ability of the late components of human complement (C3-C9) to lyse EAC 142 in the presence of appropriate dilutions of the test compound. An active inhibitor protects EAC 142 from lysis by human C3-C9; (iii) Test Code 036 (C-Shunt inhibitor)--In this test human erythrocytes rendered fragile are lysed in autologous serum via the shunt pathway activated by cobra venom factor in the presence of appropriate dilutions of the test compound. Inhibition of the shunt pathway results in failure of lysis; (iv) Cap 50 Test--Here, appropriate amounts of the test compound are added to a pool of guinea pig serum in vitro, after which the undiluted serum capillary tube assay of U.S. Pat. No. 3,876,376 is run. The concentration of compound inhibiting 50% is reported; and (v) Guinea Pig Intraperitoneal Test (GPIP)--Guinea pigs weighing about 300 g are dosed intraperitoneally (i.p.) with 200 mg/kg of the test compound dissolved in saline and adjusted to pH 7-8. Approximately 0.4 ml blood samples, taken by orbital sinus puncture 30 minutes and one hour after injections, are collected directly into centrifuge tubes; 5 ml blood samples, taken by decapitation 2 hours after injection are collected directly into beakers. The samples are allowed to clot, centrifuged, and the resultant sera are assayed for complement activity using the capillary complement assay. Percent inhibition is calculated by comparison with simultaneous controls. The results of the GPIP appear in Table I together with results of test code 026, 035, 036 and Cap 50.

[1] = test system: late components of human complement (C3-C9); assay: Test Code 035 (C3-C9 inhibitor); type: biochemical; settings: serial dilution assay, twofold dilutions; higher well number indicates higher activity; N = Negative
From the text: as §1

[2] = test system: shunt pathway activated by cobra venom factor; assay: Test Code 036 (C-Shunt inhibitor); type: cell-based, human; settings: serial dilution assay, twofold dilutions; higher well number indicates higher activity; N = Negative
From the text: as §1

In the case of O=S(=O)(O)OC[C@H]1O[C@@H](OC[C@H]2O[C@H](O[C@H]3O[C@H](CO[C@@H]4O[C@H](COS(=O)(=O)O)[C@@H](O[C@H]5O[C@H](COS(=O)(=O)O)[C@@H](OS(=O)(=O)O)[C@H](OS(=O)(=O)O)[C@H]5OS(=O)(=O)O)[C@H](OS(=O)(=O)O)[C@H]4OS(=O)(=O)O)[C@@H](OS(=O)(=O)O)[C@H](OS(=O)(=O)O)[C@H]3OS(=O)(=O)O)[C@H](OS(=O)(=O)O)[C@@H](OS(=O)(=O)O)[C@@H]2OS(=O)(=O)O)[C@H](OS(=O)(=O)O)[C@@H](OS(=O)(=O)O)[C@@H]1O[C@H]1O[C@H](COS(=O)(=O)O)[C@@H](OS(=O)(=O)O)[C@H](OS(=O)(=O)O)[C@H]1OS(=O)(=O)O [drawing 16, Glc 1α,4 glc 1β,6 glc 1α,1α' glc 1β,6 glc 1α,4 glc, eicosakis (H-sulfate), eicosasodium salt], the “Cl 026 Wells” value (activated human C1) was 10 Wells, the “C-Late 035 Wells” value [1] was “N” and the “C-Shunt Inhibition 036 Wells” value [2] was 6 Wells.
With O=S(=O)(O)OC[C@H]1O[C@@H](OC[C@H]2O[C@H](O[C@H]3O[C@H](CO[C@@H]4O[C@H](COS(=O)(=O)O)[C@H](OS(=O)(=O)O)[C@H](OS(=O)(=O)O)[C@H]4OS(=O)(=O)O)[C@@H](OS(=O)(=O)O)[C@H](OS(=O)(=O)O)[C@H]3OS(=O)(=O)O)[C@H](OS(=O)(=O)O)[C@@H](OS(=O)(=O)O)[C@@H]2OS(=O)(=O)O)[C@H](OS(=O)(=O)O)[C@@H](OS(=O)(=O)O)[C@H]1OS(=O)(=O)O [drawing 11, Gal 1β,6 glc 1α,1α' glc 1β,6 gal, tetradecakis (H-sulfate), tetradecasalt with trimethylamine] the “Cl 026 Wells” value (activated human C1) was 9 Wells and the “C-Shunt Inhibition 036 Wells” value [2] was 5 Wells.
For O=S(=O)(O)OC[C@H]1O[C@@H](OC[C@H]2O[C@H](O[C@H]3O[C@H](CO[C@@H]4O[C@H](COS(=O)(=O)O)[C@H](OS(=O)(=O)O)[C@H](OS(=O)(=O)O)[C@H]4OS(=O)(=O)O)[C@@H](OS(=O)(=O)O)[C@H](OS(=O)(=O)O)[C@H]3OS(=O)(=O)O)[C@H](OS(=O)(=O)O)[C@@H](OS(=O)(=O)O)[C@@H]2OS(=O)(=O)O)[C@H](OS(=O)(=O)O)[C@@H](OS(=O)(=O)O)[C@H]1OS(=O)(=O)O [drawing 12, Gal 1β,6 glc 1α,1α' glc 1β,6 gal, tetradecakis (H-sulfate), tetradecasodium salt], the “Cl 026 Wells” value (activated human C1) was 9 Wells and the “C-Shunt Inhibition 036 Wells” value [2] was 6 Wells.
O=S(=O)(O)OC[C@H]1O[C@@H](OC[C@H]2O[C@H](O[C@H]3O[C@H](COS(=O)(=O)O)[C@@H](OS(=O)(=O)O)[C@H](OS(=O)(=O)O)[C@H]3OS(=O)(=O)O)[C@H](OS(=O)(=O)O)[C@@H](OS(=O)(=O)O)[C@@H]2OS(=O)(=O)O)[C@H](OS(=O)(=O)O)[C@@H](OS(=O)(=O)O)[C@@H]1O[C@H]1O[C@H](COS(=O)(=O)O)[C@@H](O[C@H]2O[C@H](COS(=O)(=O)O)[C@@H](O[C@H]3O[C@H](COS(=O)(=O)O)[C@@H](O[C@H]4O[C@H](COS(=O)(=O)O)[C@@H](O[C@H]5O[C@H](COS(=O)(=O)O)[C@@H](O[C@H]6O[C@H](COS(=O)(=O)O)[C@@H](OS(=O)(=O)O)[C@H](OS(=O)(=O)O)[C@H]6OS(=O)(=O)O)[C@H](OS(=O)(=O)O)[C@H]5OS(=O)(=O)O)[C@H](OS(=O)(=O)O)[C@H]4OS(=O)(=O)O)[C@H](OS(=O)(=O)O)[C@H]3OS(=O)(=O)O)[C@H](OS(=O)(=O)O)[C@H]2OS(=O)(=O)O)[C@H](OS(=O)(=O)O)[C@H]1OS(=O)(=O)O [drawing 26, glc 1α,4 (glc 1α,4)5 glc 1β,6 glc 1α,1α'glc, nonacosakis (H-sulfate), nonacosasodium salt] was tested, and the “Cl 026 Wells” value (activated human C1) was 10 Wells, the “C-Late 035 Wells” value [1] was 1 Wells and the “C-Shunt Inhibition 036 Wells” value [2] was 6 Wells.
For O=S(=O)(O)OC[C@H]1O[C@@H](OC[C@H]2O[C@H](O[C@H]3O[C@H](CO[C@@H]4O[C@H](COS(=O)(=O)O)[C@@H](O[C@H]5O[C@H](COS(=O)(=O)O)[C@@H](O[C@H]6O[C@H](COS(=O)(=O)O)[C@@H](OS(=O)(=O)O)[C@H](OS(=O)(=O)O)[C@H]6OS(=O)(=O)O)[C@H](OS(=O)(=O)O)[C@H]5OS(=O)(=O)O)[C@H](OS(=O)(=O)O)[C@H]4OS(=O)(=O)O)[C@@H](OS(=O)(=O)O)[C@H](OS(=O)(=O)O)[C@H]3OS(=O)(=O)O)[C@H](OS(=O)(=O)O)[C@@H](OS(=O)(=O)O)[C@@H]2OS(=O)(=O)O)[C@H](OS(=O)(=O)O)[C@@H](OS(=O)(=O)O)[C@@H]1O[C@H]1O[C@H](COS(=O)(=O)O)[C@@H](O[C@H]2O[C@H](COS(=O)(=O)O)[C@@H](OS(=O)(=O)O)[C@H](OS(=O)(=O)O)[C@H]2OS(=O)(=O)O)[C@H](OS(=O)(=O)O)[C@H]1OS(=O)(=O)O [drawing 17, Glc 1α,4 glc 1α,4 glc 1β,6 glc 1α,1α' glc 1β,6 glc 1α,4 glc 1α,4 glc, hexacosakis (H-sulfate), hexacosasalt with trimethylamine], the “Cl 026 Wells” value (activated human C1) was 9 Wells, the “C-Late 035 Wells” value [1] was 1 Wells and the “C-Shunt Inhibition 036 Wells” value [2] was 6 Wells.
In the case of O=S(=O)(O)OC[C@H]1O[C@@H](OC[C@H]2O[C@H](O[C@H]3O[C@H](CO[C@@H]4O[C@H](COS(=O)(=O)O)[C@@H](O[C@H]5O[C@H](COS(=O)(=O)O)[C@@H](O[C@H]6O[C@H](COS(=O)(=O)O)[C@@H](O[C@H]7O[C@H](COS(=O)(=O)O)[C@@H](O[C@H]8O[C@H](COS(=O)(=O)O)[C@@H](O[C@H]9O[C@H](COS(=O)(=O)O)[C@@H](O[C@H]%10O[C@H](COS(=O)(=O)O)[C@@H](OS(=O)(=O)O)[C@H](OS(=O)(=O)O)[C@H]%10OS(=O)(=O)O)[C@H](OS(=O)(=O)O)[C@H]9OS(=O)(=O)O)[C@H](OS(=O)(=O)O)[C@H]8OS(=O)(=O)O)[C@H](OS(=O)(=O)O)[C@H]7OS(=O)(=O)O)[C@H](OS(=O)(=O)O)[C@H]6OS(=O)(=O)O)[C@H](OS(=O)(=O)O)[C@H]5OS(=O)(=O)O)[C@H](OS(=O)(=O)O)[C@H]4OS(=O)(=O)O)[C@@H](OS(=O)(=O)O)[C@H](OS(=O)(=O)O)[C@H]3OS(=O)(=O)O)[C@H](OS(=O)(=O)O)[C@@H](OS(=O)(=O)O)[C@@H]2OS(=O)(=O)O)[C@H](OS(=O)(=O)O)[C@@H](OS(=O)(=O)O)[C@@H]1O[C@H]1O[C@H](COS(=O)(=O)O)[C@@H](O[C@H]2O[C@H](COS(=O)(=O)O)[C@@H](O[C@H]3O[C@H](COS(=O)(=O)O)[C@@H](O[C@H]4O[C@H](COS(=O)(=O)O)[C@@H](O[C@H]5O[C@H](COS(=O)(=O)O)[C@@H](O[C@H]6O[C@H](COS(=O)(=O)O)[C@@H](OS(=O)(=O)O)[C@H](OS(=O)(=O)O)[C@H]6OS(=O)(=O)O)[C@H](OS(=O)(=O)O)[C@H]5OS(=O)(=O)O)[C@H](OS(=O)(=O)O)[C@H]4OS(=O)(=O)O)[C@H](OS(=O)(=O)O)[C@H]3OS(=O)(=O)O)[C@H](OS(=O)(=O)O)[C@H]2OS(=O)(=O)O)[C@H](OS(=O)(=O)O)[C@H]1OS(=O)(=O)O [drawing 23, Glc 1α,4 (glc 1α,4)5 glc 1β,6 glc 1α,1α'glc 1β,6 glc (glc 1α,4)5 1α,4 glc, pentacontakis (H-sulfate), pentacontasodium salt], the “Cl 026 Wells” value (activated human C1) was 9 Wells, the “C-Late 035 Wells” value [1] was 2 Wells and the “C-Shunt Inhibition 036 Wells” value [2] was 6 Wells.
In the case of O=S(=O)(O)O[C@@H]1[C@@H](OS(=O)(=O)O)[C@@H](O[C@H]2O[C@H](CO[C@@H]3OC[C@@H](OS(=O)(=O)O)[C@H](OS(=O)(=O)O)[C@H]3OS(=O)(=O)O)[C@@H](OS(=O)(=O)O)[C@H](OS(=O)(=O)O)[C@H]2OS(=O)(=O)O)O[C@H](CO[C@@H]2OC[C@@H](OS(=O)(=O)O)[C@H](OS(=O)(=O)O)[C@H]2OS(=O)(=O)O)[C@H]1OS(=O)(=O)O [drawing 13, Xyl 1β,6 glc 1α,1α' glc 1β,6 xyl, dodecakis (H-sulfate), dodecasalt with trimethylamine], the “Cl 026 Wells” value (activated human C1) was 10 Wells and the “C-Shunt Inhibition 036 Wells” value [2] was 3 Wells.
For O=S(=O)(O)OC[C@H]1O[C@@H](OC[C@H]2O[C@H](O[C@H]3O[C@H](CO[C@@H]4O[C@H](COS(=O)(=O)O)[C@@H](O[C@H]5O[C@H](COS(=O)(=O)O)[C@@H](O[C@H]6O[C@H](COS(=O)(=O)O)[C@@H](OS(=O)(=O)O)[C@H](OS(=O)(=O)O)[C@H]6OS(=O)(=O)O)[C@H](OS(=O)(=O)O)[C@H]5OS(=O)(=O)O)[C@H](OS(=O)(=O)O)[C@H]4OS(=O)(=O)O)[C@@H](OS(=O)(=O)O)[C@H](OS(=O)(=O)O)[C@H]3OS(=O)(=O)O)[C@H](OS(=O)(=O)O)[C@@H](OS(=O)(=O)O)[C@@H]2OS(=O)(=O)O)[C@H](OS(=O)(=O)O)[C@@H](OS(=O)(=O)O)[C@@H]1O[C@H]1O[C@H](COS(=O)(=O)O)[C@@H](O[C@H]2O[C@H](COS(=O)(=O)O)[C@@H](OS(=O)(=O)O)[C@H](OS(=O)(=O)O)[C@H]2OS(=O)(=O)O)[C@H](OS(=O)(=O)O)[C@H]1OS(=O)(=O)O [drawing 19, Glc 1α,4 glc 1α,4 glc 1β,6 glc 1α,1α' glc 1β,6 glc 1α,4 glc 1α,4 glc, hexacosakis (H-sulfate), hexacosasodium salt], the “Cl 026 Wells” value (activated human C1) was 9 Wells, the “C-Late 035 Wells” value [1] was 1 Wells and the “C-Shunt Inhibition 036 Wells” value [2] was 6 Wells.
